Entries after “also recorded” stand apart in the source; their conditions may differ.
Assays:
Type in all cases: cell-based
LXF-289 = assay: Lung cancer cell line panel screened for sensitivity to BPTES, 72 hr proliferation assay
NCI-H1703 = assay: as above
A427 = assay: 72 hr proliferation assay using CellTiter-Glo in 96-well format; conditions: 72 hr treatment
Text: (§1) FIGS. 8A-8C depict the GLS1 dependence in selected cancer cell lines. FIG. 8A depicts a western blot analysis of GLS1 and GLS2 protein levels in indicated cell lines. KGA and GAC alternative splice variants are indicated.
(§2) Proc of the National Academy of Sciences 109, 1092 (2012); McBryant Supra; DeLaBarre, Supra). […] This loop differs in primary sequence between GLS1 and GLS2, thereby explaining the differential response of the two isoforms.

CAKI-1 = assay: as above; conditions: 72 hr treatment
Text: as §1, §2

HCT116 = assay: as above; conditions: 72 hr treatment
Text: as §1, §2

HUH7 = assay: as above; conditions: 72 hr treatment
Text: as §1, §2

HepG2 = assay: as above; conditions: 72 hr treatment
Text: as §1, §2

MDA-MB-231 = assay: as above; conditions: 72 hr treatment
Text: as §1, §2

PC3 = assay: as above; conditions: 72 hr treatment
Text: as §1, §2

SKBR3 = assay: as above; conditions: 72 hr treatment
Text: as §1, §2

A427 cells = assay: 72 hr proliferation assay in lines stably expressing empty vector, GAC or GAC-BR
Experimental: A427 parent cells or lines stably expressing pLVX empty vector control (Con), wild-type GAC (GAC), or a BPTES-resistant GAC enzyme (GAC-BR) were treated with indicated concentrations of drugs in a 72 hr proliferation assay. […] Calculated p-values from student t-test, * (3×10^−8), **(10^−9), ^#(10^−7), ^##(2×10^−6).
Levels of overexpression of the GAC WT and GAC-BR mutant were approximately 1.5-2.0 fold above endogenous GLS1 levels (FIG. 12).

MDA-MB-231 cells = assay: 13C(5)-Gln labeling of glutamate and aspartate, LC/MS; conditions: 1 hr drug pre-treatment, 2 hr 13C(5)-Gln labeling
Experimental: MDA-MB-231 cell lines stably expressing empty vector control (Con), wild-type GAC (GAC), or a BPTES-resistant GAC enzyme (GAC-BR) were treated with indicated concentrations of drugs in a 72 hr proliferation assay. […] Calculated p-values from student t-test, * (3×10^−5), **(7×10^−10), ^#(3×10^−5), ^##(5×10^−7).
Several groups have shown that GLS inhibition leads to a decrease in cellular tricarboxylic acid cycle (TCA) intermediates downstream of GLS activity (P. Gao et al. Nature 458, 762 (2009); T. Cheng et al. Proceedings of the National Academy of Sciences 108, 8674 (2011)). Measurement of glutamate (the product of the glutaminase reaction) and aspartate (which derives both carbon and nitrogen from glutamate) are particularly sensitive readouts of glutaminase activity (FIG. 13). ^13C labeled carbon in cells pre-treated with drug was tracked for 1 hr, followed by a 2 hr ^13C(5)-Gln labeling period, via LC/MS.

NCI-H28 = assay: Mesothelioma cancer cell lines screened for sensitivity to BPTES; conditions: NCI-H28, among mesothelioma cancer cell lines
Text: The MET-5A cell line is a normal […] cell line.
(§3) Low E-cadherin/high vimentin are well-defined markers of cells that have a mesenchymal phenotype as characterized for example, in any one of the following references: (Yauch et al., (2005) Cin Cancer Res 11:24; Savagner et al., (2010) Ann Oncol. 21(suppl 7): vii89; Thiery et al., (2002) Nature Reviews Cancer June vol 2:442).

[1] = tested on: panel of 62 lung cancer cell lines; assay: Lung cancer cell line panel screened for sensitivity to BPTES, whole panel
Text: as §3, with “Of these, 44 of the cell lines have been classified as non-small cell lung cancer (NSCLC). […] Four of the top 25 transcriptional/cellular pathways were related to the epithelial-mesenchymal transition (EMT) (ranks 1, 15, 23, 25 of FIG. 2). […] Low” for “Low”

O=C(Cc1ccccc1)Nc1nnc(CCSCCc2nnc(NC(=O)Cc3ccccc3)s2)s1 [BPTES]
Max Inh @ 10 uM (%) (LXF-289; LXF-289, 10 uM): 91% | Mu/max @10 uM (LXF-289; LXF-289, 10 uM): −0.25 | μ/μmax @10 uM (LXF-289; LXF-289, 10 uM): −0.25 | μ/μmax (LXF-289; LXF-289 cell line): −0.25 | Max Inh @ 10 uM (%) (NCI-H1703; NCI-H1703, 10 uM): 87% | Mu/max @10 uM (NCI-H1703; NCI-H1703, 10 uM): 0.30 | μ/μmax @10 uM (NCI-H1703; NCI-H1703, 10 uM): 0.30 | μ/μmax (NCI-H1703; NCI-H1703 cell line): 0.30 | response to BPTES treatment (A427): Maximum response | sensitivity to BPTES treatment (CAKI-1): modest sensitivity | response to the compound (HCT116): minimal response | response to the compound (HUH7): minimal response | sensitivity to BPTES treatment (HepG2): modest sensitivity | sensitivity to BPTES treatment (MDA-MB-231): modest sensitivity | response to the compound (PC3): minimal response | response to BPTES treatment (SKBR3): minimum effect; also recorded: minimal response | sensitivity to BPTES (A427 cells; A427 cells expressing empty vector or GAC-WT): retained significant sensitivity | sensitivity to BPTES (A427 cells; A427 cells with stable overexpression of the GAC-BR mutant): rendered resistant | 13C label accumulation in glutamate and aspartate (MDA-MB-231 cells): decreased label accumulation | sensitivity to BPTES (NCI-H28): most sensitive | share of the 62 lines with significant sensitivity to BPTES (μ/μmax<0.6) [1]: Approximately 30%

From US10101331B2, “Methods of evaluating patients using E-cadherin or vimentin” (AGIOS PHARMACEUTICALS, INC, priority 2012, dated 2018)
